# Source: US11180494B2, “Substituted amino acids as integrin inhibitors” (Pliant Therapeutics, Inc., priority 2018, dated 2021)
# Biological target: human integrin αvβ6 (Homo sapiens (Human), UniProt P06756+P18564)
# Assay: Proximity-based integrin receptor binding assay (ALPHASCREEN) for inhibitor potency
# Conditions: inhibition of binding of TGF-b1 LAP to human integrin αvβ6; values given in ranges
# Outline: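 AlphaScreen: integrin, compound, TGF-b1 LAP, biotinylated anti-LAP antibody and acceptor beads incubated 2 hours, then streptavidin donor beads 30 minutes, at room temperature in 50 mM Tris-HCl pH 7.5, 0.1% BSA, 1 mM CaCl2 and MgCl2. Excitation 680 nm, emission 520-620 nm; IC50 by four-parameter logistic fit.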
# human integrin αvβ6, sequence (P06756 31-992): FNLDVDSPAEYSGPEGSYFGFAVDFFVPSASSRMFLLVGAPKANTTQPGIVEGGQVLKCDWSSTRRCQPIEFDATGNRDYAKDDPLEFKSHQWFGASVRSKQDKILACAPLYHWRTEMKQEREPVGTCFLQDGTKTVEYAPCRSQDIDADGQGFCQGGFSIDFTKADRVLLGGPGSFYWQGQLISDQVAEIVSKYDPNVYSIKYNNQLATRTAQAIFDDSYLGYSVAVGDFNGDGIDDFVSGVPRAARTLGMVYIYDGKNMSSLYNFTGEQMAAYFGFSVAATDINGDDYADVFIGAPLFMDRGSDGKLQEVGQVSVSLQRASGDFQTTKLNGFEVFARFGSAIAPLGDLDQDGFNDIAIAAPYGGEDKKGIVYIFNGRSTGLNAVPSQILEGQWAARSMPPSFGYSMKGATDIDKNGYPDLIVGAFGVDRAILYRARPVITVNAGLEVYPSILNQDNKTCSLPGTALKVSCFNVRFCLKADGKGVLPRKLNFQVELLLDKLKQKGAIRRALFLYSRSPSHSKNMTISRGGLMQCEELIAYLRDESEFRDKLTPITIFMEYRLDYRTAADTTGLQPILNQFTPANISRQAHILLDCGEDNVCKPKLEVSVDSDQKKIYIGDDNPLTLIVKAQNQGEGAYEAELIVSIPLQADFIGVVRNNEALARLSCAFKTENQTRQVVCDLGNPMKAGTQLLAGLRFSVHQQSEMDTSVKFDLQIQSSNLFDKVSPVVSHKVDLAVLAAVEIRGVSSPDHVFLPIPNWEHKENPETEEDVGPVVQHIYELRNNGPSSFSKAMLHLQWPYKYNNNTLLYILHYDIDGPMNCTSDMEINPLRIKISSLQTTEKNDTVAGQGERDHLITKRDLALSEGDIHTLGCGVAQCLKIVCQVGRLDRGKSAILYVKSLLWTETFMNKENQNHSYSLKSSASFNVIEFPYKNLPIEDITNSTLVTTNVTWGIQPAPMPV
# human integrin αvβ6, sequence (P18564 22-707): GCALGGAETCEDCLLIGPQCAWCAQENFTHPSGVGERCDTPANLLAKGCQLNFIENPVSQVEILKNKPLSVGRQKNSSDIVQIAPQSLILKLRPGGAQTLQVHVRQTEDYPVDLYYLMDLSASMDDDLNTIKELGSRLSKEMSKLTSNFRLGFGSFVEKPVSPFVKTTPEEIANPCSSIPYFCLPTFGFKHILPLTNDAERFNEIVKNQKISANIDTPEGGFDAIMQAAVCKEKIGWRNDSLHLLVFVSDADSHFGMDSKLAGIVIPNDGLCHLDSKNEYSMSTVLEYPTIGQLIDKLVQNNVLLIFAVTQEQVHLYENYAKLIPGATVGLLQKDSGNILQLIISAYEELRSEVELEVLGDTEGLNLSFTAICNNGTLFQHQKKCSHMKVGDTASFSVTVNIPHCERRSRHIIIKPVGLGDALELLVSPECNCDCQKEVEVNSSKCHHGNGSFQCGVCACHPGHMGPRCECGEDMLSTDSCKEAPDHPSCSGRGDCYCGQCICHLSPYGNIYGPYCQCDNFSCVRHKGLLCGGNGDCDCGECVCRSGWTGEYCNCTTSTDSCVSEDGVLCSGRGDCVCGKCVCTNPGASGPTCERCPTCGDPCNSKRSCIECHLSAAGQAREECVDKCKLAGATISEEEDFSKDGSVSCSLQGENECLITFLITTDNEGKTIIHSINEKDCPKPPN
row,SMILES,IC50 [nM]
1,"O=C(O)C(CCO[C@H]1C[C@H](CCc2ccc3c(n2)NCCC3)C1)NC(=O)C1(c2ccccc2)CCC1 (stereo partly drawn) [Compound 84, N-(1-phenylcyclobutane-1-carbonyl)-O-(trans-3-(2-(5,6,7,8-tetrahydro-1,8-naphthyridin-2-yl)ethyl)cyclobutyl)homoserine]",< 50
2,"CC(C)(Cc1ccccc1)C(=O)NC(CCO[C@H]1C[C@H](CCc2ccc3c(n2)NCCC3)C1)C(=O)O (stereo partly drawn) [Compound 85, N-(2,2-dimethyl-3-phenylpropanoyl)-O-(trans-3-(2-(5,6,7,8-tetrahydro-1,8-naphthyridin-2-yl)ethyl)cyclobutyl)homoserine]",250 to 1000
3,"CC(C)(C)OC(=O)NC(CCO[C@H]1C[C@H](CCc2ccc3c(n2)NCCC3)C1)C(=O)O (stereo partly drawn) [Compound 86, N-(tert-butoxycarbonyl)-O-(trans-3-(2-(5,6,7,8-tetrahydro-1,8-naphthyridin-2-yl)ethyl)cyclobutyl)homoserine]",250 to 1000
4,"CC(C)(C(=O)NC(CCO[C@H]1C[C@H](CCc2ccc3c(n2)NCCC3)C1)C(=O)O)c1ccc(F)cc1 (stereo partly drawn) [Compound 87, N-(2-(4-fluorophenyl)-2-methylpropanoyl)-O-(trans-3-(2-(5,6,7,8-tetrahydro-1,8-naphthyridin-2-yl)ethyl)cyclobutyl)homoserine]",250 to 1000
5,"CC1(C(=O)NC(CCO[C@H]2C[C@H](CCc3ccc4c(n3)NCCC4)C2)C(=O)O)COC1 (stereo partly drawn) [Compound 88, N-(3-methyloxetane-3-carbonyl)-O-(trans-3-(2-(5,6,7,8-tetrahydro-1,8-naphthyridin-2-yl)ethyl)cyclobutyl)homoserine]",50 to 250
6,"CC(C)(CO)C(=O)NC(CCO[C@H]1C[C@H](CCc2ccc3c(n2)NCCC3)C1)C(=O)O (stereo partly drawn) [Compound 89, N-(3-hydroxy-2,2-dimethylpropanoyl)-O-(trans-3-(2-(5,6,7,8-tetrahydro-1,8-naphthyridin-2-yl)ethyl)cyclobutyl)homoserine]",250 to 1000
7,"COCC(C)(C)C(=O)NC(CCO[C@H]1C[C@H](CCc2ccc3c(n2)NCCC3)C1)C(=O)O (stereo partly drawn) [Compound 90, N-(3-methoxy-2,2-dimethylpropanoyl)-O-(trans-3-(2-(5,6,7,8-tetrahydro-1,8-naphthyridin-2-yl)ethyl)cyclobutyl)homoserine]",250 to 1000
8,"CC(C)(C(=O)NC(CCO[C@H]1C[C@H](CCc2ccc3c(n2)NCCC3)C1)C(=O)O)c1cccnc1 (stereo partly drawn) [Compound 91, N-(2-methyl-2-(pyridin-3-yl)propanoyl)-O-(trans-3-(2-(5,6,7,8-tetrahydro-1,8-naphthyridin-2-yl)ethyl)cyclobutyl)homoserine]",50 to 250
9,"O=C(NC(CCO[C@H]1C[C@H](CCc2ccc3c(n2)NCCC3)C1)C(=O)O)C1Cc2ccccc2C1 (stereo partly drawn) [Compound 92, N-(2,3-dihydro-1H-indene-2-carbonyl)-O-(trans-3-(2-(5,6,7,8-tetrahydro-1,8-naphthyridin-2-yl)ethyl)cyclobutyl)homoserine]",250 to 1000
10,"CC(C)(CC#N)C(=O)NC(CCO[C@H]1C[C@H](CCc2ccc3c(n2)NCCC3)C1)C(=O)O (stereo partly drawn) [Compound 93, N-(3-cyano-2,2-dimethylpropanoyl)-O-(trans-3-(2-(5,6,7,8-tetrahydro-1,8-naphthyridin-2-yl)ethyl)cyclobutyl)homoserine]",50 to 250
11,"CC(C)(C)C(=O)NC(CCO[C@H]1C[C@H](CCc2ccc3c(n2)NCCC3)C1)C(=O)O (stereo partly drawn) [Compound 94, N-pivaloyl-O-(trans-3-(2-(5,6,7,8-tetrahydro-1,8-naphthyridin-2-yl)ethyl)cyclobutyl)homoserine]",50 to 250
12,"O=C(O)C(CCO[C@H]1C[C@H](CCc2ccc3c(n2)NCCC3)C1)NC(=O)C1(c2ccccc2)CC1 (stereo partly drawn) [Compound 97, N-(1-phenylcyclopropane-1-carbonyl)-O-(trans-3-(2-(5,6,7,8-tetrahydro-1,8-naphthyridin-2-yl)ethyl)cyclobutyl)homoserine]",< 50
13,"CC(C)(Cc1ccccc1)C(=O)NC(CCO[C@H]1C[C@H](CCc2ccc3c(n2)NCCC3)C1)C(=O)O (stereo partly drawn) [Compound 100, N-(2,2-dimethyl-3-phenylpropanoyl)-O-(trans-3-(2-(5,6,7,8-tetrahydro-1,8-naphthyridin-2-yl)ethyl)cyclobutyl)homoserine]",50 to 250
14,"CC(C)(C)OC(=O)NC(CCO[C@H]1C[C@H](CCc2ccc3c(n2)NCCC3)C1)C(=O)O (stereo partly drawn) [Compound 101, N-(tert-butoxycarbonyl)-O-(trans-3-(2-(5,6,7,8-tetrahydro-1,8-naphthyridin-2-yl)ethyl)cyclobutyl)homoserine]",< 50
15,"CC(C)(C(=O)NC(CCO[C@H]1C[C@H](CCc2ccc3c(n2)NCCC3)C1)C(=O)O)c1ccc(F)cc1 (stereo partly drawn) [Compound 102, N-(2-(4-fluorophenyl)-2-methylpropanoyl)-O-(trans-3-(2-(5,6,7,8-tetrahydro-1,8-naphthyridin-2-yl)ethyl)cyclobutyl)homoserine]",< 50
16,"CC1(C(=O)NC(CCO[C@H]2C[C@H](CCc3ccc4c(n3)NCCC4)C2)C(=O)O)COC1 (stereo partly drawn) [Compound 103, N-(3-methyloxetane-3-carbonyl)-O-(trans-3-(2-(5,6,7,8-tetrahydro-1,8-naphthyridin-2-yl)ethyl)cyclobutyl)homoserine]",< 50
17,"CC(C)(CO)C(=O)NC(CCO[C@H]1C[C@H](CCc2ccc3c(n2)NCCC3)C1)C(=O)O (stereo partly drawn) [Compound 104, N-(3-hydroxy-2,2-dimethylpropanoyl)-O-(trans-3-(2-(5,6,7,8-tetrahydro-1,8-naphthyridin-2-yl)ethyl)cyclobutyl)homoserine]",< 50
18,"COCC(C)(C)C(=O)NC(CCO[C@H]1C[C@H](CCc2ccc3c(n2)NCCC3)C1)C(=O)O (stereo partly drawn) [Compound 105, N-(3-methoxy-2,2-dimethylpropanoyl)-O-(trans-3-(2-(5,6,7,8-tetrahydro-1,8-naphthyridin-2-yl)ethyl)cyclobutyl)homoserine]",< 50
19,"CC(C)(C(=O)NC(CCO[C@H]1C[C@H](CCc2ccc3c(n2)NCCC3)C1)C(=O)O)c1cccnc1 (stereo partly drawn) [Compound 106, N-(2-methyl-2-(pyridin-3-yl)propanoyl)-O-(trans-3-(2-(5,6,7,8-tetrahydro-1,8-naphthyridin-2-yl)ethyl)cyclobutyl)homoserine]",< 50
20,"O=C(NC(CCO[C@H]1C[C@H](CCc2ccc3c(n2)NCCC3)C1)C(=O)O)C1Cc2ccccc2C1 (stereo partly drawn) [Compound 107, N-(2,3-dihydro-1H-indene-2-carbonyl)-O-(trans-3-(2-(5,6,7,8-tetrahydro-1,8-naphthyridin-2-yl)ethyl)cyclobutyl)homoserine]",< 50
21,"CC(C)(CC#N)C(=O)NC(CCO[C@H]1C[C@H](CCc2ccc3c(n2)NCCC3)C1)C(=O)O (stereo partly drawn) [Compound 108, N-(3-cyano-2,2-dimethylpropanoyl)-O-(trans-3-(2-(5,6,7,8-tetrahydro-1,8-naphthyridin-2-yl)ethyl)cyclobutyl)homoserine]",< 50
22,"CC(C)(C)C(=O)NC(CCO[C@H]1C[C@H](CCc2ccc3c(n2)NCCC3)C1)C(=O)O (stereo partly drawn) [Compound 109, N-pivaloyl-O-(trans-3-(2-(5,6,7,8-tetrahydro-1,8-naphthyridin-2-yl)ethyl)cyclobutyl)homoserine]",< 50
23,"CC(C)(C)COC(=O)N[C@@H](CCO[C@H]1C[C@H](CCc2ccc3c(n2)NCCC3)C1)C(=O)O [Compound 112, N-((neopentyloxy)carbonyl)-O-(trans-3-(2-(5,6,7,8-tetrahydro-1,8-naphthyridin-2-yl)ethyl)cyclobutyl)homoserine]",50 to 250
24,"CC1(OC(=O)N[C@@H](CCO[C@H]2C[C@H](CCc3ccc4c(n3)NCCC4)C2)C(=O)O)CC1 [Compound 113, N-((1-methylcyclopropoxy)carbonyl)-O-(trans-3-(2-(5,6,7,8-tetrahydro-1,8-naphthyridin-2-yl)ethyl)cyclobutyl)homoserine]",< 50
25,"CC1(OC(=O)N[C@@H](CCO[C@H]2C[C@H](CCc3ccc4c(n3)NCCC4)C2)C(=O)O)CCC1 [Compound 114, N-((1-methylcyclobutoxy)carbonyl)-O-(trans-3-(2-(5,6,7,8-tetrahydro-1,8-naphthyridin-2-yl)ethyl)cyclobutyl)homoserine]",< 50
26,"CC(C)(OC(=O)N[C@@H](CCO[C@H]1C[C@H](CCc2ccc3c(n2)NCCC3)C1)C(=O)O)C(F)(F)F [Compound 115, O-(trans-3-(2-(5,6,7,8-tetrahydro-1,8-naphthyridin-2-yl)ethyl)cyclobutyl)-N-(((1,1,1-trifluoro-2-methylpropan-2-yl)oxy)carbonyl)homoserine]",< 50
27,"CC(C)OC(=O)N[C@@H](CCO[C@H]1C[C@H](CCc2ccc3c(n2)NCCC3)C1)C(=O)O [Compound 116, N-(isopropoxycarbonyl)-O-(trans-3-(2-(5,6,7,8-tetrahydro-1,8-naphthyridin-2-yl)ethyl)cyclobutyl)homoserine]",< 50
28,"CCN(CC)C(=O)N[C@@H](CCO[C@H]1C[C@H](CCc2ccc3c(n2)NCCC3)C1)C(=O)O [Compound 117, N-(diethylcarbamoyl)-O-(trans-3-(2-(5,6,7,8-tetrahydro-1,8-naphthyridin-2-yl)ethyl)cyclobutyl)homoserine]",< 50

# Same assay, conditions: inhibition of binding of TGF-b1 LAP to human integrin αvβ6; values given in ranges; listed as 83*
row,SMILES,IC50 [nM]
1,"CC(C)(C(=O)NC(CCO[C@H]1C[C@H](CCc2ccc3c(n2)NCCC3)C1)C(=O)O)c1ccccc1 (stereo partly drawn) [Compound 83, N-(2-methyl-2-phenylpropanoyl)-O-(trans-3-(2-(5,6,7,8-tetrahydro-1,8-naphthyridin-2-yl)ethyl)cyclobutyl)homoserine]",> 1000

# Same assay, conditions: inhibition of binding of TGF-b1 LAP to human integrin αvβ6; values given in ranges; listed as 98**
row,SMILES,IC50 [nM]
1,"CC(C)(C(=O)NC(CCO[C@H]1C[C@H](CCc2ccc3c(n2)NCCC3)C1)C(=O)O)c1ccccc1 (stereo partly drawn) [Compound 98, N-(2-methyl-2-phenylpropanoyl)-O-(trans-3-(2-(5,6,7,8-tetrahydro-1,8-naphthyridin-2-yl)ethyl)cyclobutyl)homoserine]",< 50
